Reference: patent publication US12540148B2, “Lipophosphonoxins, their preparation and use” (USTAV ORGANICKE CHEMIE A BIOCHEMIE AV CR, V. V. I., priority 2019, dated 2026)
≈ marks a conversion by molar mass, not a printed value. Where a name gives a salt, the structure may show the parent alone. Read-outs that look alike come from different tables or passages of the source.

Legend:
Assay type in all cases: cell-based
[1] = system: Enterobacter kobei 3683; assay: MIC, microdilution method
Method: (§1) Disposable microtiter plates are used for testing. Samples are dissolved in infusion medium from brain and heart (BHI, HiMedia Laboraties Pvt. Ltd., Czech Republic) and Mueller-Hinton broth (HiMedia Laboraties, see above) to a final concentration ranging from 200 μg/ml to 1.5625 μg/ml. Plates are inoculated with a standard amount of test bacteria—the density of the inoculum in the well corresponds to 10^5-6 CFU/ml (colony forming units/ml, i.e. the number of viable bacterial cells/ml). MIC values are read after 24/48 hours of incubation at 37° C. as the minimum inhibitory concentration of the test substance at which bacterial growth is inhibited. The minimum bactericidal concentration (MBC) is characterized as the minimum concentration of the sample required to achieve irreversible inhibition, i.e. to kill the bacteria after a defined incubation period. MBC is determined by the inoculation method. Using an applicator, 10 μl from the well of a microtiter plate with a defined concentration of the test substance is taken to inoculate the surface of blood agar (Trios, Czech Republic). MBC is determined as the lowest concentration that inhibits the visible growth of the bacterium used on agar.

[2] = system: Enterococcus faecalis ATCC 29212 = CCM 4224; assay: MIC, microdilution method
Method: as §1

[3] = system: Enterococcus faecium 419/ANA; assay: MIC, microdilution method
Method: as §1

[4] = system: Escherichia coli ATCC 25922 = CCM 3954; assay: MIC, microdilution method
Method: as §1

[5] = system: Escherichia coli CE5556; assay: MIC, microdilution method
Method: as §1

[6] = system: Pseudomonas aeruginosa ATCC 27853 = CCM 3955; assay: MIC, microdilution method
Method: as §1

[7] = system: Pseudomonas aeruginosa R; assay: MIC, microdilution method
Method: as §1

[8] = system: Staphylococcus aureus 4591; assay: MIC, microdilution method
Method: as §1

[9] = system: Staphylococcus aureus ATCC 29213 = CCM 4223; assay: MIC, microdilution method
Method: as §1

[10] = system: Staphylococcus epidermidis CCM 7221; assay: MIC, microdilution method
Method: as §1

[11] = system: Candida albicans ATCC 90028 = CCM 8161; assay: MIC, microdilution method
[12] = system: erythrocytes; assay: Haemolytic activity of soluble samples
Method: Blood from three donors is mixed and centrifuged (10 min, 1000 g, 4° C.). The erythrocytes obtained are washed three times with NaCl solution (150 mmol·l^−1) and then used for experiments. Sample stock solutions are prepared in DMSO so that the final concentration of DMSO in NaCl is 0.5% (v/v). NaCl solution with the appropriate volume of DMSO serves as the negative control. 1% Triton-X100 is the positive control. The erythrocytes obtained are diluted to 2% with NaCl solution and pipetted into Eppendorf tubes (250 μl) with constant stirring. Samples and positive and negative controls are added to the erythrocytes prepared in this way and incubated (3 hours, 37° C.). The tubes are stirred during the incubation. After centrifugation (5 min, 1000 g), haemolytic activity is monitored by haemoglobin determination. The HC50 value is calculated from the measured absorbance values. The test is performed in triplets in three independent replicates. Iron Fe^2+ in haemoglobin is oxidized with potassium ferricyanide to iron Fe^3+ in methaemoglobin, which produces stable cyanomethaemoglobin with potassium cyanide, the concentration of which is determined spectrophotometrically. After the incubation of the erythrocytes with the substances, the cells are centrifuged (5 min, 1000 g), then Drabkin's solution (200 μl) is added to the supernatant (40 μl) and after incubation (10 min), the absorbance at 540 nm is measured.

[13] = Staphylococcus epidermidis, CCM7221

Molecule | MIC ([1]; Enterobacter kobei, 3683) | MIC ([2]; Enterococcus faecalis) | MIC ([3]; Enterococcus faecium, 419/ANA) | MIC ([4]; Escherichia coli) | MIC ([5]; Escherichia coli, CE5556) | MIC ([6]; Pseudomonas aeruginosa) | MIC ([7]; Pseudomonas aeruginosa) | MIC ([8]; Staphylococcus aureus, 4591) | MIC ([9]; Staphylococcus aureus) | MIC [10, 13] | MIC ([11]; Candida albicans) | HC50 ± SD [12] | also measured
CC(C)COP(=O)(CCN(CCCN)CCCN)OCCCCCCCCCCOP(=O)(CCN(CCCN)CCCN)OCC(C)C (centres unmarked) [Example 40, Diisobutyl decane-1,10-diyl bis((2-(bis(3-aminopropyl)amino)ethyl)-phosphonate) hexahydrochloride] | > 128 µg/mL | 128 µg/mL | > 128 µg/mL | > 128 µg/mL | > 128 µg/mL | > 128 µg/mL | > 128 µg/mL | 8 µg/mL | 16 µg/mL | 4 µg/mL | 128 µg/mL | >100 | –
CC(C)COP(=O)(CCN(CCCN)CCCN)OCCCCCCCCCCCCOP(=O)(CCN(CCCN)CCCN)OCC(C)C (centres unmarked) [Example 46, Dodecane-1,12-diyl diisobutyl bis((2-(bis(3-aminopropyl)amino)ethyl)-phosphonate) hexahydrochloride] | > 128 µg/mL | 32 µg/mL | > 128 µg/mL | 128 µg/mL | > 128 µg/mL | 32 µg/mL | 16 µg/mL | 4 µg/mL | 4 µg/mL | 1 µg/mL | 64 µg/mL | >100 | –
CCCCCOP(=O)(CCN(CCCN)CCCN)OCCCCCCCCCCCCOP(=O)(CCN(CCCN)CCCN)OCCCCC (centres unmarked) [Example 48, Dodecane-1,12-diyl dipentyl bis((2-(bis(3-aminopropyl)amino)ethyl)-phosphonate) hexahydrochloride] | 1 µg/mL | 1 µg/mL | 1 µg/mL | 1 µg/mL | 1 µg/mL | 2 µg/mL | 2 µg/mL | 1 µg/mL | 1 µg/mL | 0.5 µg/mL | 2 µg/mL | 4 | –
NCCCN(CCCN)CCP(=O)(OCCCCCCCCCCCCOP(=O)(CCN(CCCN)CCCN)OCCc1ccccc1)OCCc1ccccc1 (centres unmarked) [Example 50] | 8 µg/mL (≈ 9.38 µM) | 4 µg/mL (≈ 4.69 µM) | 2 µg/mL (≈ 2.34 µM) | 16 µg/mL (≈ 18.8 µM) | 2 µg/mL (≈ 2.34 µM) | 4 µg/mL (≈ 4.69 µM) | 2 µg/mL (≈ 2.34 µM) | 1 µg/mL (≈ 1.17 µM) | 2 µg/mL (≈ 2.34 µM) | 0.5 µg/mL (≈ 0.586 µM) | 4 µg/mL (≈ 4.69 µM) | >100 | –
CC(C)COP(=O)(CCN(CCCN)CCCN)OCCCCCCCCCCCCCCOP(=O)(CCN(CCCN)CCCN)OCC(C)C (centres unmarked) [Example 51, Tetradecane-1,14-diyl diisobutyl bis((2-(bis(3-aminopropyl)amino)ethyl)-phosphonate) hexahydrochloride] | 64 µg/mL | 4 µg/mL | 16 µg/mL | 16 µg/mL | 32 µg/mL | 4 µg/mL | 4 µg/mL | 2 µg/mL | 2 µg/mL | 0.5 µg/mL | 32 µg/mL | >100 | –
CCCCCCOP(=O)(CCN(CCN)CCN)OCCCCCCCCOP(=O)(CCN(CCN)CCN)OCCCCCC (centres unmarked) [Example 55, Dihexyl octane-1,8-diyl bis((2-(bis(2-aminoethyl)amino)ethyl)phosphonate) hexahydrochloride] | > 128 µg/mL | 128 µg/mL | > 128 µg/mL | > 128 µg/mL | > 128 µg/mL | 64 µg/mL | 64 µg/mL | 4 µg/mL | 2 µg/mL | 2 µg/mL | 32 µg/mL | >100 | –
CCCC/C=C\CCOP(=O)(CCN(CCCN)CCCN)OCCCCCCOP(=O)(CCN(CCCN)CCCN)OCC/C=C\CCCC (centres unmarked) [Example 57, Hexane-1,6-diyl di((Z)-oct-3-en-1-yl) bis((2-(bis(3-aminopropyl)amino)-ethyl)phosphonate) hexahydrochloride] | – | 16 µg/mL | 64 µg/mL | 2 µg/mL | 2 µg/mL | 16 µg/mL | 16 µg/mL | 1 µg/mL | 1 µg/mL | 0.5 µg/mL | 64 µg/mL | 34.8 | –
CCCC/C=C\CCOP(=O)(CCN(CCCN)CCCN)OCCCCCOP(=O)(CCN(CCCN)CCCN)OCC/C=C\CCCC (centres unmarked) [Example 58, Di((Z)-oct-3-en-1-yl) pentane-1,5-diyl bis((2-(bis(3-aminopropyl)amino)ethyl)-phosphonate) hexahydrochloride] | – | 2 µg/mL | 4 µg/mL | 8 µg/mL | 4 µg/mL | 32 µg/mL | 32 µg/mL | 128 µg/mL | 0.5 µg/mL | 2 µg/mL | 64 µg/mL | 70 | –
Dibutyl dodecane-1,12-diyl bis((2-(bis(3-aminopropyl)amino)ethyl)-phosphonate) hexahydrochloride [Example 47] | – | – | – | – | – | – | – | – | – | – | – | >100 | MIC [1]: 128 µg/mL; MIC [2]: 2 µg/mL; MIC [3]: 16 µg/mL; MIC [4]: 16 µg/mL; MIC [5]: 32 µg/mL; MIC [6]: 4 µg/mL; MIC ([7]; 24/48 hours at 37° C.): 4 µg/mL; MIC [8]: 1 µg/mL; MIC [9]: 1 µg/mL; MIC [10]: 0.5 µg/mL; MIC [11]: 16 µg/mL
Dihexyl tetradecan-1,14-diyl bis((2-(bis(3-aminopropyl)amino)ethyl)-phosphonate) tetrahydrochloride [Example 54] | – | – | – | – | – | – | – | – | – | – | – | >100 | MIC [1]: >128 µg/mL; MIC [2]: 8 µg/mL; MIC [3]: 64 µg/mL; MIC [4]: 4 µg/mL; MIC [5]: 16 µg/mL; MIC [6]: 8 µg/mL; MIC ([7]; 24/48 hours at 37° C.): 8 µg/mL; MIC [8]: 1 µg/mL; MIC [9]: 1 µg/mL; MIC [10]: 0.5 µg/mL; MIC [11]: 16 µg/mL
Dodecan-1,10-diyl dioctyl bis((2-(bis(3-aminopropyl)amino)ethyl)-phosphonate) tetrahydrochloride [Example 49] | – | – | – | – | – | – | – | – | – | – | – | >100 | MIC [1]: 128 µg/mL; MIC [2]: 4 µg/mL; MIC [3]: 32 µg/mL; MIC [5]: 16 µg/mL; MIC [6]: 8 µg/mL; MIC ([7]; 24/48 hours at 37° C.): 8 µg/mL; MIC [8]: 4 µg/mL; MIC [10]: 0.5 µg/mL; MIC [11]: 8 µg/mL
